The kinase profiling compilation of Christmann-Franck et al. (2016)

Experiments:
Assay in all cases: radiometric filter-binding kinase assay
[1] = test system: AKT2 (human), P31751 [S474D]
CAMKK2 (human) = CAMKK2 (human) (UniProt Q96RR4)
CHEK1 (human) = CHEK1 (human) (UniProt O14757)
CLK2 (human) = CLK2 (human) (UniProt P49760)
CSNK1D (human) = CSNK1D (human) (UniProt P48730)
DYRK1A (human) = DYRK1A (human) (UniProt Q13627)
EPHA4 (human) = EPHA4 (human) (UniProt P54764)
HIPK3 (human) = HIPK3 (human) (UniProt Q9H422)
Chain of HIPK3 (human) (Q9H422 whole entry, looked up): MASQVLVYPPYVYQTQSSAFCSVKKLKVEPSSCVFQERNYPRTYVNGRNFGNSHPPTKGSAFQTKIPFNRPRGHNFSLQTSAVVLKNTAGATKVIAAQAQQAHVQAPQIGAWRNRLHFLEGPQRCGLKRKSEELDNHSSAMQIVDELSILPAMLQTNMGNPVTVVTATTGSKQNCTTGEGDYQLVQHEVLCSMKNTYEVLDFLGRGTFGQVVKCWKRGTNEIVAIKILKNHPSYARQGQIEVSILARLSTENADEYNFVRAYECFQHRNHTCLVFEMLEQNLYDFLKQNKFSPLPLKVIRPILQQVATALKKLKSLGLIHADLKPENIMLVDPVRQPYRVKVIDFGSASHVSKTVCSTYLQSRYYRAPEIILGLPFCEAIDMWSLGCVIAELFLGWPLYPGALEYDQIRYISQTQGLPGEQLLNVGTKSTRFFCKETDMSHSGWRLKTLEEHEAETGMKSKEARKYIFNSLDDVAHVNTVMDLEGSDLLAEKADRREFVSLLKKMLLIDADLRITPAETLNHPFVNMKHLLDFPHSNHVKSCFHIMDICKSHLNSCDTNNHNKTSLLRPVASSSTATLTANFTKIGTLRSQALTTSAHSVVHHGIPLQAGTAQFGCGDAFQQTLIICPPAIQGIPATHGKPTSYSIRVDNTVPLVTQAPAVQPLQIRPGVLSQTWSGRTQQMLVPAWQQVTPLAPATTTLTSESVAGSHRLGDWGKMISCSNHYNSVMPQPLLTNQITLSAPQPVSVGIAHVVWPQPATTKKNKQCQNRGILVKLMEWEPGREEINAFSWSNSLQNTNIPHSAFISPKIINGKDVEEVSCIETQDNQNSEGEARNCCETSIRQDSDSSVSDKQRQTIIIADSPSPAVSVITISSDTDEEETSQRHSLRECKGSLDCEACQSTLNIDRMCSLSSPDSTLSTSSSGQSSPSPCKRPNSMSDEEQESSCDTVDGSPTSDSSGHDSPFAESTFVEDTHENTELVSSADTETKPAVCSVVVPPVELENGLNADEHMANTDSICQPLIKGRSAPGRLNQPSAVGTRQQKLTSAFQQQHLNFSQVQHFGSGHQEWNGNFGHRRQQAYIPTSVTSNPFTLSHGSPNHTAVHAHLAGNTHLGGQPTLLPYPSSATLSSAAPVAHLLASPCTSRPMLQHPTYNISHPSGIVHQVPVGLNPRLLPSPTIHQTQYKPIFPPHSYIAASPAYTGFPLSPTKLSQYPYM

IGF1R (human) = IGF1R (human) (UniProt P08069)
IKBKE (human) = IKBKE (human) (UniProt Q14164)
IRAK4 (human) = IRAK4 (human) (UniProt Q9NWZ3)
MAP3K7 TAB1 (human) = MAP3K7 TAB1 (human) (UniProt Q15750+O43318)
Chain of MAP3K7 TAB1 (human) (O43318 whole entry, looked up): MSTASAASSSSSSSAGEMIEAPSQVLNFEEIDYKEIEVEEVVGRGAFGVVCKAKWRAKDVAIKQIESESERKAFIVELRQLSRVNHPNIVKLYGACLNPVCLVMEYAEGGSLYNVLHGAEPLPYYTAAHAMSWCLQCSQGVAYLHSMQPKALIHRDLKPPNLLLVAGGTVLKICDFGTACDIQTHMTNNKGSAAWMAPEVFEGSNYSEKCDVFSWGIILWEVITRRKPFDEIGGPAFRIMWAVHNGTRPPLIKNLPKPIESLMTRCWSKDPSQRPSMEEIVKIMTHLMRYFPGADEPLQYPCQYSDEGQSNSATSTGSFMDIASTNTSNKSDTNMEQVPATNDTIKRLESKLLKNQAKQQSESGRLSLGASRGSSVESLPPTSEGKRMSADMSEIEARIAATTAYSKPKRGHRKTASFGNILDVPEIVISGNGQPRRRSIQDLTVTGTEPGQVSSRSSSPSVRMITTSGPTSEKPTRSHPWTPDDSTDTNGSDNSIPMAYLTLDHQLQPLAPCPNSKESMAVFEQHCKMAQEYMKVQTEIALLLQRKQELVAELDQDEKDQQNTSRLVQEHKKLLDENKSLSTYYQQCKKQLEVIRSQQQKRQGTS
Chain of MAP3K7 TAB1 (human) (Q15750 whole entry, looked up): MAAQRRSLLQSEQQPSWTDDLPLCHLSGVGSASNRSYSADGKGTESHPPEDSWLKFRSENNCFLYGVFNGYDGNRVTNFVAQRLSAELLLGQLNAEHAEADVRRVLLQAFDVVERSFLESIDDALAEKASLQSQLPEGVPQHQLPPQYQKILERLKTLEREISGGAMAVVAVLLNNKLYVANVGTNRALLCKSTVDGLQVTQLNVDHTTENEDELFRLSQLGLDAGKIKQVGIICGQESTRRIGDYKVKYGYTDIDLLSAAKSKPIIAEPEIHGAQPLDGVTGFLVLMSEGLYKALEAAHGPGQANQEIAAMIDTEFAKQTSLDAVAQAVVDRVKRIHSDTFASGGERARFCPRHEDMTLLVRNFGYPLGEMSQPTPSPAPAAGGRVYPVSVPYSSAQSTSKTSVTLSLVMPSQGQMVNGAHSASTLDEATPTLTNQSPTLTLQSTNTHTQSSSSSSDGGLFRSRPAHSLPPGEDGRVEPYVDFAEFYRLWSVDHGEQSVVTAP

MAPK12 (human) = MAPK12 (human) (UniProt P53778)
MAPK14 (human) = MAPK14 (human) (UniProt Q16539)
Chain of MAPK14 (human) (Q16539 whole entry, looked up): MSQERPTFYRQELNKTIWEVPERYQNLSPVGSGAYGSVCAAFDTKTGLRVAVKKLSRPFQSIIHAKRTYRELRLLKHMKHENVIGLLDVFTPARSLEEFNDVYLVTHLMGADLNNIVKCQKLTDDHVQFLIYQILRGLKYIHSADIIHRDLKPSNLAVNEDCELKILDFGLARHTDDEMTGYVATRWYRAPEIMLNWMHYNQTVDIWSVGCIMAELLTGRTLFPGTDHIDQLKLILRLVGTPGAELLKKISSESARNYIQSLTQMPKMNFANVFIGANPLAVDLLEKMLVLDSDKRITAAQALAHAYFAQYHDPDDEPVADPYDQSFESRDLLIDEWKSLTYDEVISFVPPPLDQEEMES

MAPK15 (human) = MAPK15 (human) (UniProt Q8TD08)
MAPK3 (human) = MAPK3 (human) (UniProt P27361)
Chain of MAPK3 (human) (P27361 whole entry, looked up): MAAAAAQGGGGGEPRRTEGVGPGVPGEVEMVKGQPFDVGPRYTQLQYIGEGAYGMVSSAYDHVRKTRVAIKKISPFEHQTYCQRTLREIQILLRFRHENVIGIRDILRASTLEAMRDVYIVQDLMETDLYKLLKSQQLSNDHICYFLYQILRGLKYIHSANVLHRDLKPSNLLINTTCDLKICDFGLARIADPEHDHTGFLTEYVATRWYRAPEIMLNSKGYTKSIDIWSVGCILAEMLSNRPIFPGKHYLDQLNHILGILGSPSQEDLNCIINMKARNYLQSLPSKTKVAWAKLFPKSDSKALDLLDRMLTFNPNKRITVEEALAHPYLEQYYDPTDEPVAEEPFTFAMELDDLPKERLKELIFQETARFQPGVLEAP

MAPKAPK2 (human) = MAPKAPK2 (human) (UniProt P49137)
MARK1 (human) = MARK1 (human) (UniProt Q9P0L2)
MARK2 (human) = MARK2 (human) (UniProt Q7KZI7)
Chain of MARK2 (human) (Q7KZI7 whole entry, looked up): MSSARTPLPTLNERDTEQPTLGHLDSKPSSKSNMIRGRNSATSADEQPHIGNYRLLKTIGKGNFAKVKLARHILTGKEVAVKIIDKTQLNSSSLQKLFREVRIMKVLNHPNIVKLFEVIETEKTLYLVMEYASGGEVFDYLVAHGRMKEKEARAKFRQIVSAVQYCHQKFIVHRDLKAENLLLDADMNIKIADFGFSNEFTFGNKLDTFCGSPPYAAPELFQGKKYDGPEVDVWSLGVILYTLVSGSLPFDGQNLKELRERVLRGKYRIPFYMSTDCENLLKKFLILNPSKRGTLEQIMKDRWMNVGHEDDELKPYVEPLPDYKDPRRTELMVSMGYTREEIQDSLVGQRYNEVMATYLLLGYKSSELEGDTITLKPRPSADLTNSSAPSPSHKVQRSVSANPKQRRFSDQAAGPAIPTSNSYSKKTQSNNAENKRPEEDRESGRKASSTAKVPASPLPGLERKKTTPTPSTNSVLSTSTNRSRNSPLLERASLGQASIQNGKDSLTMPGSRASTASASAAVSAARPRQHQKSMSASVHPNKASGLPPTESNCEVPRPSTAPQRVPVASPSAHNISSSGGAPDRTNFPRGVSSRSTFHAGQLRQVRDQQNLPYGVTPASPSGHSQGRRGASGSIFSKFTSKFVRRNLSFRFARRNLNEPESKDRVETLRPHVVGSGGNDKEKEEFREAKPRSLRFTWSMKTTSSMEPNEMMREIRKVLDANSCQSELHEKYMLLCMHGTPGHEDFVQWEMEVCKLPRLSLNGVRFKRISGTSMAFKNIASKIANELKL

MST4 (human) = MST4 (human) (UniProt Q9P289)
NEK2 (human) = NEK2 (human) (UniProt P51955)
Chain of NEK2 (human) (P51955 whole entry, looked up): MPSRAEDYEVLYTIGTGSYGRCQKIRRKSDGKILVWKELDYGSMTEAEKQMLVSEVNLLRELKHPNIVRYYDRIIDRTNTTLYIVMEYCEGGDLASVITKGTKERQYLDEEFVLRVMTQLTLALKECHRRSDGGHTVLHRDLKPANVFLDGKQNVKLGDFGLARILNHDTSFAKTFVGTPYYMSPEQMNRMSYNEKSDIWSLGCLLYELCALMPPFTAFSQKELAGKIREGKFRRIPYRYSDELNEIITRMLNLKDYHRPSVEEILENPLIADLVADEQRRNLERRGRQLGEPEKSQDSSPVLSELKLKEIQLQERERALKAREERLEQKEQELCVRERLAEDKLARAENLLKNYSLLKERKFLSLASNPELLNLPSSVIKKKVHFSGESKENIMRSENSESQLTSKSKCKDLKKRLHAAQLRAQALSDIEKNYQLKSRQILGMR

NEK6 (human) = NEK6 (human) (UniProt Q9HC98)
[2] = test system: PAK2 (human), Q13177 [T402E]
PAK4 (human) = PAK4 (human) (UniProt O96013)
PAK6 (human) = PAK6 (human) (UniProt Q9NQU5)
PAK7 (human) = PAK7 (human) (UniProt Q9P286)
PIM2 (human) = PIM2 (human) (UniProt Q9P1W9)
PIM3 (human) = PIM3 (human) (UniProt Q86V86)
PKN2 (human) = PKN2 (human) (UniProt Q16513); conditions: compound 0.01 µM
PLK1 (human) = PLK1 (human) (UniProt P53350)
RIPK2 (human) = RIPK2 (human) (UniProt O43353)
RPS6KA3 KD1 KD2 (human) = RPS6KA3 KD1 KD2 (human) (UniProt P51812)
RPS6KA5 KD1 KD2 (human) = RPS6KA5 KD1 KD2 (human) (UniProt O75582)
[3] = test system: SGK1 (human), O00141 [S422D]
SRPK1 (human) = SRPK1 (human) (UniProt Q96SB4)
Chain of SRPK1 (human) (Q96SB4 whole entry, looked up): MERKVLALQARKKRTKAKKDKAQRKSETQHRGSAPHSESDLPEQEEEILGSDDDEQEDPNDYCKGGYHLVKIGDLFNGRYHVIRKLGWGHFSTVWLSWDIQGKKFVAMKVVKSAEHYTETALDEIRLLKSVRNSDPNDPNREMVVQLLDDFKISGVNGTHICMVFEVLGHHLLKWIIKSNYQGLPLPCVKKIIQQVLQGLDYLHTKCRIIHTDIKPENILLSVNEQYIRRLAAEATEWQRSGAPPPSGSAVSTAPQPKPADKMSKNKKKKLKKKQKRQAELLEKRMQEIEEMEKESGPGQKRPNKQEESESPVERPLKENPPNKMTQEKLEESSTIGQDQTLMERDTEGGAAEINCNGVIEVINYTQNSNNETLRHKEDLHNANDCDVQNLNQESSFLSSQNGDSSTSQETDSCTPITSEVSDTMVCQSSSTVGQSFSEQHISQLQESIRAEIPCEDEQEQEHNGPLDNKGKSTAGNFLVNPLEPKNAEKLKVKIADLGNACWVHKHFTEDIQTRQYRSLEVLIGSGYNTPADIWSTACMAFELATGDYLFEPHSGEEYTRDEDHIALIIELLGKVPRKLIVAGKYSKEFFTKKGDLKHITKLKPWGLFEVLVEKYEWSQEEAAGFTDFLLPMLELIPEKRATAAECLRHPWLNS

With `COc1cc(O)c2c(c1)[C@H]1OC1C[C@H](O)[C@H](O)C(=O)/C=C\C[C@H](C)OC2=O` (stereo partly drawn) the residual activity ([1]; compound 0.01 µM) was 105%, the residual activity ([1]; compound 0.1 µM) was 103% and the residual activity (CAMKK2 (human); compound 0.01 µM) was 102%. For the same compound, the residual activity (CAMKK2 (human); compound 0.1 µM) was 99%, the residual activity (CHEK1 (human); compound 0.01 µM) was 93% and the residual activity (CHEK1 (human); compound 0.1 µM) was 93%. The residual activity (CHEK1 (human); compound 1.0 µM) was 94%, the residual activity (CLK2 (human); compound 0.01 µM) was 94% and the residual activity (CLK2 (human); compound 0.1 µM) was 100%. For the same compound, the residual activity (CSNK1D (human); compound 0.01 µM) was 116%, the residual activity (CSNK1D (human); compound 0.1 µM) was 101% and the residual activity (DYRK1A (human); compound 0.01 µM) was 98%. The residual activity (DYRK1A (human); compound 0.1 µM) was 105%, the residual activity (DYRK1A (human); compound 1.0 µM) was 101% and the residual activity (EPHA4 (human); compound 0.01 µM) was 109%. It also gave a residual activity (EPHA4 (human); compound 0.1 µM) of 122%, a residual activity (EPHA4 (human); compound 1.0 µM) of 107% and a residual activity (HIPK3 (human); compound 0.01 µM) of 104%. It also gave a residual activity (HIPK3 (human); compound 0.1 µM) of 100%, a residual activity (HIPK3 (human); compound 1.0 µM) of 102% and a residual activity (IGF1R (human); compound 0.01 µM) of 103%. It also gave a residual activity (IGF1R (human); compound 0.1 µM) of 100%, a residual activity (IKBKE (human); compound 0.01 µM) of 108% and a residual activity (IKBKE (human); compound 0.1 µM) of 105%. The residual activity (IKBKE (human); compound 1.0 µM) was 92%, the residual activity (IRAK4 (human); compound 0.01 µM) was 112% and the residual activity (IRAK4 (human); compound 0.1 µM) was 99%. The residual activity (IRAK4 (human); compound 1.0 µM) was 57%, the residual activity (MAP3K7 TAB1 (human); compound 0.01 µM) was 101% and the residual activity (MAP3K7 TAB1 (human); compound 0.1 µM) was 48%. It also gave a residual activity (MAP3K7 TAB1 (human); compound 1.0 µM) of 2%, a residual activity (MAPK12 (human); compound 0.01 µM) of 100% and a residual activity (MAPK12 (human); compound 0.1 µM) of 105%. It also gave a residual activity (MAPK14 (human); compound 0.01 µM) of 108%, a residual activity (MAPK14 (human); compound 0.1 µM) of 105% and a residual activity (MAPK14 (human); compound 1.0 µM) of 105%. For the same compound, the residual activity (MAPK15 (human); compound 0.01 µM) was 80%, the residual activity (MAPK15 (human); compound 0.1 µM) was 27% and the residual activity (MAPK15 (human); compound 1.0 µM) was 11%. The residual activity (MAPK3 (human); compound 0.01 µM) was 111%, the residual activity (MAPK3 (human); compound 0.1 µM) was 102% and the residual activity (MAPK3 (human); compound 1.0 µM) was 57%. For the same compound, the residual activity (MAPKAPK2 (human); compound 0.01 µM) was 93%, the residual activity (MAPKAPK2 (human); compound 0.1 µM) was 101% and the residual activity (MARK1 (human); compound 0.01 µM) was 101%. The residual activity (MARK1 (human); compound 0.1 µM) was 99%, the residual activity (MARK1 (human); compound 1.0 µM) was 101% and the residual activity (MARK2 (human); compound 0.01 µM) was 90%. The residual activity (MARK2 (human); compound 0.1 µM) was 100%, the residual activity (MARK2 (human); compound 1.0 µM) was 100% and the residual activity (MST4 (human); compound 0.01 µM) was 96%. For the same compound, the residual activity (MST4 (human); compound 0.1 µM) was 106%, the residual activity (MST4 (human); compound 1.0 µM) was 86% and the residual activity (NEK2 (human); compound 0.01 µM) was 103%. It also gave a residual activity (NEK2 (human); compound 0.1 µM) of 127%, a residual activity (NEK2 (human); compound 1.0 µM) of 105% and a residual activity (NEK6 (human); compound 0.01 µM) of 97%. The residual activity (NEK6 (human); compound 0.1 µM) was 90%, the residual activity (NEK6 (human); compound 1.0 µM) was 98% and the residual activity ([2]; compound 0.01 µM) was 99%. It also gave a residual activity ([2]; compound 0.1 µM) of 94%, a residual activity ([2]; compound 1.0 µM) of 95% and a residual activity (PAK4 (human); compound 0.01 µM) of 81%. It also gave a residual activity (PAK4 (human); compound 0.1 µM) of 100%, a residual activity (PAK6 (human); compound 0.01 µM) of 92% and a residual activity (PAK6 (human); compound 0.1 µM) of 95%. The residual activity (PAK6 (human); compound 1.0 µM) was 95%, the residual activity (PAK7 (human); compound 0.01 µM) was 102% and the residual activity (PAK7 (human); compound 0.1 µM) was 115%. For the same compound, the residual activity (PIM2 (human); compound 0.01 µM) was 93%, the residual activity (PIM2 (human); compound 0.1 µM) was 114% and the residual activity (PIM3 (human); compound 0.01 µM) was 92%. The residual activity (PIM3 (human); compound 0.1 µM) was 98%, the residual activity (PIM3 (human); compound 1.0 µM) was 99% and the residual activity (PKN2 (human)) was 93%. It also gave a residual activity (PLK1 (human); compound 0.01 µM) of 102%, a residual activity (PLK1 (human); compound 0.1 µM) of 107% and a residual activity (PLK1 (human); compound 1.0 µM) of 114%. For the same compound, the residual activity (RIPK2 (human); compound 0.01 µM) was 104%, the residual activity (RIPK2 (human); compound 0.1 µM) was 102% and the residual activity (RIPK2 (human); compound 1.0 µM) was 85%. It also gave a residual activity (RPS6KA3 KD1 KD2 (human); compound 0.01 µM) of 129%, a residual activity (RPS6KA3 KD1 KD2 (human); compound 0.1 µM) of 125% and a residual activity (RPS6KA3 KD1 KD2 (human); compound 1.0 µM) of 129%. For the same compound, the residual activity (RPS6KA5 KD1 KD2 (human); compound 0.01 µM) was 108%, the residual activity (RPS6KA5 KD1 KD2 (human); compound 0.1 µM) was 104% and the residual activity (RPS6KA5 KD1 KD2 (human); compound 1.0 µM) was 104%. The residual activity ([3]; compound 0.01 µM) was 93%, the residual activity ([3]; compound 0.1 µM) was 91% and the residual activity ([3]; compound 1.0 µM) was 104%. The residual activity (SRPK1 (human); compound 0.01 µM) was 111%, the residual activity (SRPK1 (human); compound 0.1 µM) was 95% and the residual activity (SRPK1 (human); compound 1.0 µM) was 100%.
